Columns and labels:
Test in all cases: SILAC LC-MS ATP acyl phosphate probe competition, native kinases in HEK293T
Format in all cases: binding, Homo sapiens (Human)
[1] = test system: AAPK1/AAPK2 (5′-AMP-activated protein kinase catalytic subunit alpha-1); details: site Lys2; ATP 1 mM; Ketanserin, Ritanserin 100 μM; RF001 1 mM
Description: (§1) Proteomes were diluted to 2 mg/ml in kinase buffer. The light and heavy proteomes (0.5 mg, 250 μL total reaction volume) were pre-treated with vehicle or compound, respectively (5 μL, DMSO (light) or 50× stock in DMSO (heavy)), mixed gently, and incubated at 25° C. for 30 min. […] After incubation, matched light and heavy proteomes were transferred and mixed in a 1:1 ratio in a two-dram vial containing 4:1:3 MeOH/CHCl3/H2O (2 mL MeOH, 500 AL CHCl3, 1.5 mL H2O) for extraction of proteins to remove excess probe, quickly vortexed, and centrifuged at 1,400×g for 3 min to pellet protein. Organic and aqueous layers were removed using a Pasteur pipette, and the protein pellet was transferred to a screw-top tube in 600 μL MeOH. A second extraction was performed by adding CHCl3 (150 μL) and H2O (600 μL) to each sample, vortexed, and centrifuged at 1,400×g for 3 min to pellet protein. Organic and aqueous layers were removed by pipetting. MeOH added to pellet (600 μL) and pellets were re-suspended by sonication (3×1 sec pulse, 20% amplitude) for a final extraction. Samples were then centrifuged at 17,000×g for 5 min to pellet protein and MeOH was removed by pipetting. The pellets were re-suspended in 10 M urea/25 mM ammonium bicarbonate ([…]), brought to a final volume of 1 mL with 25 mM ammonium bicarbonate, reduced with 10 mM DTT for 15 min at 65° C. allowed to cool, and then alkylated with 40 mM iodoacetamide for 30 min at 25° C. in the dark. To desalt the samples, each was transferred to a two-dram glass vial, and to the vial 4:1:2 MeOH/CHCl3/H2O (2 mL MeOH, 500 AL CHCl3, 1 mL H2O) was added. The vials were vortexed quickly, spun at 1.400×g for 3 min to pellet protein, and aqueous and organic layers were removed using a Pasteur pipette. The resulting protein pellet was transferred to a screw-top tube in 600 μL MeOH, and then CHCl3 (150 μL) and HO (600 μL) were added to extract protein a second time. The samples were vortexed quickly, centrifuged at 1,400×g to pellet protein, and the aqueous and organic layers were removed by pipetting. Resulting protein pellet was suspended in MeOH (600 μL) via sonication (3×1 sec pulse, 20% amplitude), centrifuged at 17,000×g for 5 min to pellet protein, and MeOH removed by pipetting. Protein pellets were then re-suspended in 25 mM ammonium bicarbonate (500 μL) and digested with 7.5 μg Trypsin/Lys-C(Promega, 15 μL, 0.5 μg/μL) for 3 h at 37° C. Avidin-agarose beads (Thermo Scientific Pierce, 100 AL aliquot per sample) were washed three times by adding 10 mL DPBS, centrifuged at 1,400×g for 1 min, and decanting. This wash step was repeated for a total of 3 times. Digested protein samples were mixed with washed avidin beads (100 μL) and brought to a volume of 5.5 mL with DPBS in a 15 mL conical and rotated for 1 h to enrich samples for the covalent desthiobiotin modification. The beads were washed with 25 mM ammonium bicarbonate (3× with 10 mL, centrifuge at 1,400×g for 3 min, decant) and then H2O (3× with 10 mL, centrifuge at 1,400×g for 3 min, decant). Washed beads were then transferred to a low-bind microfuge tube, centrifuged at 1,400×g for 3 min, allowed to rest for 1 min to settle beads, and then excess H2O was removed carefully using a gel-loading pipette tip. To elute peptides, 100 μL of elution buffer (50% acetonitrile, ACN; 0.1% formic acid) was added to each sample and incubated for 3 min. Beads were spun down at 1.400×g for 3 min, allowed to rest for 1 min to settle beads, and then 75 μL of peptide-containing supernatant was removed carefully using a gel-loading pipette tip and transferred to a new low bind centrifuge tube. This step was repeated two more times with 75 μL of elution buffer and all eluent were collected into the same centrifuge tube (˜225 μL total). Peptides were dried on a speed vacuum, resulting peptide samples acidified in 5% (v/v) formic acid, and stored at −80° C. until analysis.
(§2) The peptide samples were analyzed by liquid chromatography-mass spectrometry. […]

[2] = test system: KS6A1/KS6A2/KS6A3 (Ribosomal protein S6 kinase alpha 1); details: site Lys2; ATP 1 mM; Ketanserin, Ritanserin 100 μM; RF001 1 mM
Description: as §1, §2

[3] = test system: MP2K1/MP2K2 (Dual specificity mitogen-activated protein kinase kinase 1); details: site Lys2; ATP 1 mM; Ketanserin, Ritanserin 100 μM; RF001 1 mM
Description: as §1, §2

[4] = test system: MARK3/MARK4 (MAP/microtubule affinity-regulating kinase 3); details: site Lys1; ATP 1 mM; Ketanserin, Ritanserin 100 μM; RF001 1 mM
Description: as §1, §2

[5] = test system: KS6A4/KS6A5 (Ribosomal protein S6 kinase alpha 4); details: site ATP Loop; ATP 1 mM; Ketanserin, Ritanserin 100 μM; RF001 1 mM
Description: as §1, §2

[6] = test system: STK3/STK4 (Serine/threonine-protein kinase 3); details: site Lys2; ATP 1 mM; Ketanserin, Ritanserin 100 μM; RF001 1 mM
Description: as §1, §2

[7] = test system: M4K4/MINK1/TNIK (Mitogen-activated protein kinase kinase kinase kinase 4); details: site Lys2; ATP 1 mM; Ketanserin, Ritanserin 100 μM; RF001 1 mM
Description: as §1, §2

Row | SMILES | SILAC ratio, AAPK1/AAPK2 probe-modified peptide [1] | SILAC ratio, KS6A1/KS6A2/KS6A3 probe-modified peptide [2] | SILAC ratio, MP2K1/MP2K2 probe-modified peptide [3] | SILAC ratio, MARK3/MARK4 probe-modified peptide [4] | SILAC ratio, KS6A4/KS6A5 probe-modified peptide [5] | SILAC ratio, STK3/STK4 probe-modified peptide [6] | SILAC ratio, M4K4/MINK1/TNIK probe-modified peptide [7]
1 | O=C(c1ccc(F)cc1)C1CCN(CCn2c(=O)[nH]c3ccccc3c2=O)CC1 [Ketanserin] | 1.4 | 1.4 | 1.3 | 1.4 | 1.3 | 1.2 | 1.3
2 | Fc1ccc(C(=C2CCNCC2)c2ccc(F)cc2)cc1 [RF001, 4-(Bis(4-fluorophenyl)methylene) piperidine] | 1.1 | 1.2 | 0.9 | 1.1 | 1.1 | 0.9 | 1.1
3 | Cc1nc2sccn2c(=O)c1CCN1CCC(=C(c2ccc(F)cc2)c2ccc(F)cc2)CC1 [Ritanserin] | 2.4 | 2.0 | 1.9 | 2.0 | 2.2 | 1.6 | 1.8

Source: US12643867B2, “Compositions and uses thereof” (University of Virginia Patent Foundation, priority 2017, dated 2026)
